The nature of one data set: log P determination by HPLC (reversed-phase C18), EEC Directive 79/831 Annex V.A8. In kind it is physicochemical. The settings on record: pH 2.3. As for the experimental part: The stated log P values were determined in accordance with EEC Directive 79/831 Annex V.A8 by HPLC (High Performance Liquid Chromatography) using a reversed-phase column, (C 18). Temperature: 43° C. Mobile phases for the determination in the acidic range: 0.1% aqueous phosphoric acid, acetonitrile; linear gradient from 10% acetonitrile to 90% acetonitrile. Calibration was carried out using unbranched alkan-2-ones (having 3 to 16 carbon atoms) with known logP values (determination of the logP values by the retention times using linear interpolation between two successive alkanones).
Consider `NC(=O)OCCOC(=O)CSc1nccc(-c2ccccn2)n1` [Example 177], for which the chromatographic logP is 1.41.

Still in this data set, the particulars now being: pH 2.3; HPLC, reversed-phase C 18, 43° C., 0.1% aqueous phosphoric acid/acetonitrile; read-out: log P (pH 2.3).
As to `O=C(CSc1nccc(-c2ccccn2)n1)OCC(F)(F)C(F)(F)C(F)(F)F` [Example 119], the chromatographic logP was determined as 3.37.

Staying with this data set, now noted: reversed-phase C18 HPLC column; pH 2.3; HPLC, reversed-phase C 18, 43° C., 0.1% aqueous phosphoric acid/acetonitrile; read-out: log P (pH 2.3).
With `O=C(CSc1nccc(-c2ccccn2)n1)OC(C(F)(F)F)C(F)(F)F` [Example 120], the chromatographic logP amounted to 3.59.
Same read-out and setting: the same measure for `CC(OC(=O)CSc1nccc(-c2ccccn2)n1)C(F)(F)F` (stereo not shown) [Example 121]: 3.06; for `O=C(CSc1nccc(-c2ccccn2)n1)OCCC(F)(F)F` [Example 122]: 2.26; for `O=C(CSc1nccc(-c2ccccn2)n1)OCC(Cl)Cl` [Example 123]: 2.78.
On the same count and under the same terms, the same measure for `O=C(CSc1nccc(-c2ccccn2)n1)OCc1ccc(Cl)nc1` [Example 124]: 2.31; for `O=C(CSc1nccc(-c2ccccn2)n1)OCC(Cl)(Cl)Cl` [Example 125]: 3.31; for `O=C(CSc1nccc(-c2ccccn2)n1)OCCCl` [Example 126]: 2.29.
As to `O=C(CSc1nccc(-c2ccccn2)n1)OC1COCOC1` [Example 127], the chromatographic logP was 1.76.
On to `CCOC(=O)CSc1nccc(-c2ccc(C)cn2)n1` [Example 128], for which the chromatographic logP came to 2.5.
Consider `CC(C)(C)C(=O)OCCNC(=O)NCCCOC(=O)CSc1nccc(-c2ccccn2)n1` [Example 129], for which the chromatographic logP was 2.51.
`CC(C)(C)c1ccc(NC(=O)NCCCOC(=O)CSc2nccc(-c3ccccn3)n2)cc1` [Example 130]: the chromatographic logP was 3.51.
In the case of `CC(C)COC(=O)c1cccc(NC(=O)NCCCOC(=O)CSc2nccc(-c3ccccn3)n2)c1` [Example 131], the chromatographic logP stood at 3.45.
Same read-out and setting: under `O=C(NCCCOC(=O)CSc1nccc(-c2ccccn2)n1)Nc1cccc2c1CCCC2` [Example 133] stands 3.06; under `NNC(=O)CSc1nccc(-c2ccccn2)n1` [Example 134], 0.43.
Turning to `O=C(CSc1nccc(-c2ccccn2)n1)N/N=C/c1ccc([N+](=O)[O-])cc1` [Example 135], the chromatographic logP was determined as 2.23.
On the same count and under the same terms, the same measure for `CC(C)=NNC(=O)CSc1nccc(-c2ccccn2)n1` [Example 136]: 0.44.
With `O=C(CSc1nccc(-c2ccccn2)n1)NCc1cc(C(F)(F)F)cc(C(F)(F)F)c1` [Example 137], the chromatographic logP is 3.22.
On the same count and under the same terms, under `O=C(CSc1nccc(-c2ccccn2)n1)NCc1ccccc1SC(F)(F)F` [Example 138] stands 2.92; under `O=C(NCCCOC(=O)CSc1nccc(-c2ccccn2)n1)Nc1ccc(Cl)cc1Cl` [Example 139], 3.2.
On the same count and under the same terms, the same measure for `CS(=O)(=O)NC(=O)CSc1nccc(-c2ccccn2)n1` [Example 140]: 1.13; for `CC(C)(C)OC(=O)NCCOC(=O)CSc1nccc(-c2ccccn2)n1` [Example 141]: 2.63; for `CC(C)(C)OC(=O)NCCCOC(=O)CSc1nccc(-c2ccccn2)n1` [Example 142]: 2.79.
In the case of `N#Cc1ccc(NC(=O)NCCOC(=O)CSc2nccc(-c3ccccn3)n2)cc1` [Example 146], the chromatographic logP amounted to 2.3.
With `O=C(NCCOC(=O)CSc1nccc(-c2ccccn2)n1)Nc1ccc(C(F)(F)F)cc1` [Example 147], the chromatographic logP is 3.04.
Regarding `CC(C)(C)c1ccc(NC(=O)NCCOC(=O)CSc2nccc(-c3ccccn3)n2)cc1` [Example 148], the chromatographic logP was 3.35.
The same measure, in the same setting: under `CC(C)COC(=O)c1cccc(NC(=O)NCCOC(=O)CSc2nccc(-c3ccccn3)n2)c1` [Example 149] stands 3.01; under `CCOC(=O)c1cc(NC(=O)NCCOC(=O)CSc2nccc(-c3ccccn3)n2)ccc1Cl` [Example 150], 4.95.
Still for that read-out and setting: under `O=C(NCCOC(=O)CSc1nccc(-c2ccccn2)n1)Nc1cccc2c1CCCC2` [Example 151] stands 2.94.
Consider `N#Cc1ccc(NC(=O)NCCCOC(=O)CSc2nccc(-c3ccccn3)n2)cc1` [Example 152], for which the chromatographic logP was 2.45.
As to `O=C(NCCCOC(=O)CSc1nccc(-c2ccccn2)n1)Nc1ccc(C(F)(F)F)cc1` [Example 153], the chromatographic logP came out at 3.2.
Consider `O=C(CSc1nccc(-c2ccccn2)n1)OCC1CCCC1` [Example 154], for which the chromatographic logP is 3.6.
Turning to `CC1(COC(=O)CSc2nccc(-c3ccccn3)n2)COC1` [Example 158], the chromatographic logP was 1.98.
As for `O=C(CSc1nccc(-c2ccccn2)n1)OCC1CCCCC1` [Example 159], the chromatographic logP was determined as 4.
Still for that read-out and setting: the same measure for `O=C(CSc1nccc(-c2ccccn2)n1)OCCN1CCNC1=S` [Example 160]: 1.59.
Regarding `CC(CN1CCOCC1)OC(=O)CSc1nccc(-c2ccccn2)n1` (stereo not shown) [Example 161], the chromatographic logP is 1.16.
Take `NC(=O)COC(=O)CSc1nccc(-c2ccccn2)n1` [Example 163]: the chromatographic logP was 1.11.
The same measure, in the same setting: under `COC(COC(=O)CSc1nccc(-c2ccccn2)n1)OC` [Example 164] stands 2.05; under `O=C(CSc1nccc(-c2ccccn2)n1)OCCCN1CCCC1=O` [Example 165], 1.64; under `C=CC(C)(C)COC(=O)CSc1nccc(-c2ccccn2)n1` [Example 168], 3.48.
Consider `CCNC(=S)NCCOC(=O)CSc1nccc(-c2ccccn2)n1` [Example 172], for which the chromatographic logP is 1.79.
On to `O=C(CSc1nccc(-c2ccccn2)n1)OC1CS(=O)(=O)C1` [Example 173], for which the chromatographic logP was 1.67.
In the case of `COCNC(=O)OCCOC(=O)CSc1nccc(-c2ccccn2)n1` [Example 175], the chromatographic logP stood at 1.64.
As to `Cc1cnn(CCOC(=O)CSc2nccc(-c3ccccn3)n2)n1` [Example 176], the chromatographic logP stood at 1.93.
On the same count and under the same terms, under `CN(C)C(=O)SCCOC(=O)CSc1nccc(-c2ccccn2)n1` [Example 178] stands 2.2.
On the same count and under the same terms, under `COC(C)(C)COC(=O)CSc1nccc(-c2ccccn2)n1` [Example 179] stands 2.29.
Turning to `CSCC(C)(C)COC(=O)CSc1nccc(-c2ccccn2)n1` [Example 186], the chromatographic logP turned out to be 3.46.
On the same count and under the same terms, under `CC(=O)NCC(C)OC(=O)CSc1nccc(-c2ccccn2)n1` (stereo not shown) [Example 188] stands 1.97; under `COCC(C)(C)COC(=O)CSc1nccc(-c2ccccn2)n1` [Example 190], 3.05.
Same read-out and setting: under `CC(C)/C=N/CCOC(=O)CSc1nccc(-c2ccccn2)n1` [Example 191] stands 2.02.
The same measure, in the same setting: under `O=C(CSc1nccc(-c2ccccn2)n1)OCC1COC(=O)O1` (stereo not shown) [Example 192] stands 1.63; under `CC1(C)OCC(CCOC(=O)CSc2nccc(-c3ccccn3)n2)O1` (stereo not shown) [Example 193], 2.46.
In the case of `CC(C)OC(=O)C(C)OC(=O)CSc1nccc(-c2ccccn2)n1` (stereo not shown) [Example 194], the chromatographic logP stood at 2.95.
Take `CC(C)(F)COC(=O)CSc1nccc(-c2ccccn2)n1` [Example 196]: the chromatographic logP was found to be 2.66.
On to `Cc1scnc1CCOC(=O)CSc1nccc(-c2ccccn2)n1` [Example 197], for which the chromatographic logP was determined as 1.79.
On the same count and under the same terms, the same measure for `CCC1(COC(=O)CSc2nccc(-c3ccccn3)n2)CCO1` (stereo not shown) [Example 198]: 2.2.
On the same count and under the same terms, the same measure for `CCOC(=O)C1CC1COC(=O)CSc1nccc(-c2ccccn2)n1` (stereo not shown) [Example 199]: 2.64; for `COC(=O)CCCOC(=O)CSc1nccc(-c2ccccn2)n1` [Example 200]: 2.21; for `Cn1ccnc1COC(=O)CSc1nccc(-c2ccccn2)n1` [Example 201]: 1.02.
The same measure, in the same setting: the same measure for `CSC(C)COC(=O)CSc1nccc(-c2ccccn2)n1` (stereo not shown) [Example 203]: 2.78.
In the case of `O=C(CSc1nccc(-c2ccccn2)n1)OCCc1ccncc1` [Example 204], the chromatographic logP stood at 1.2.
Same read-out and setting: the same measure for `CC(C)(C)C(Cl)COC(=O)CSc1nccc(-c2ccccn2)n1` (stereo not shown) [Example 205]: 3.81; for `O=C(CSc1nccc(-c2ccccn2)n1)OCC1CCC(=O)O1` (stereo not shown) [Example 206]: 1.64.
The same measure, in the same setting: under `O=C(CSc1nccc(-c2ccccn2)n1)OCC#CCCl` [Example 207] stands 2.61.
For `O=C(CSc1nccc(-c2ccccn2)n1)OCCn1cncn1` [Example 209], the chromatographic logP turned out to be 1.32.
On to `O=C(CSc1nccc(-c2ccccn2)n1)OCCn1ccnn1` [Example 210], for which the chromatographic logP was 1.42.
The same measure, in the same setting: the same measure for `CC(C)(C)C1(COC(=O)CSc2nccc(-c3ccccn3)n2)COC1` [Example 211]: 2.75; for `CO/N=C/C(C)OC(=O)CSc1nccc(-c2ccccn2)n1` (stereo not shown) [Example 212]: 2.13.
The same measure, in the same setting: under `CNC(=O)NCCCOC(=O)CSc1nccc(-c2ccccn2)n1` [Example 213] stands 1.42; under `C/C=N/OCCOC(=O)CSc1nccc(-c2ccccn2)n1` [Example 214], 2.13.
On the same count and under the same terms, the same measure for `CC(C=C(Cl)Cl)OC(=O)CSc1nccc(-c2ccccn2)n1` (stereo not shown) [Example 215]: 3.48.
As to `CCC(=O)NCCCOC(=O)CSc1nccc(-c2ccccn2)n1` [Example 216], the chromatographic logP turned out to be 2.04.
Turning to `CN(C=O)CCOC(=O)CSc1nccc(-c2ccccn2)n1` [Example 217], the chromatographic logP was determined as 1.4.
Still for that read-out and setting: the same measure for `CN1CCC(COC(=O)CSc2nccc(-c3ccccn3)n2)O1` (stereo not shown) [Example 220]: 1.12; for `O=C(CSc1nccc(-c2ccccn2)n1)OC1CC(F)(F)C1(F)F` (stereo not shown) [Example 221]: 3.

(Values after patent US7238697B2, “Pyridylpyrimidines for use as pesticides” (Bayer CropScience AG, priority 2001, dated 2007).)
